Measurements: patent US20190231785A1, “PHOSPHODIESTERASE INHIBITOR TREATMENT” (Cyrano Therapeutics, Inc., priority 2012, published 2019)
Marks after values point to notes of the source that are not given here.

Tested on: patients with hyposmia
Assay: Olfactometry (DT, RT, ME, H; forced-choice, three-stimuli, stepwise-staircase, four odors), open trial of oral theophylline
Type: in vivo, human
Text: Patients initially reported their sensory dysfunction as either loss of taste (e.g., flavor) and/or smell function. This subjective response was documented by objective psychophysical measurements of olfactory function administered to each patient by use of a forced-choice, three-stimuli, stepwise-staircase technique in a fixed, controlled design (1, 53). Efficacy of this technique and results of testing were previously documented in a double-blind clinical trial (53). Four odors were used; they were pyridine (dead-fish odor), nitrobenzene (bitter-almond odor), thiophene (petroleum-like odor) and amyl acetate (banana-oil odor). Detection thresholds (DT), recognition thresholds (RT) and magnitude estimation (ME) values for each odor were determined as previously described (1, 53). Thresholds were converted into bottle units (BU) as previously described (53) and results reported as M±SEM of correct responses for each odor in each treatment group; ME was reported in % and results calculated to obtain M±SEM for each treatment group for all correct responses using data for the four highest odor concentrations presented (from 10^−2M—an absolute odor concentration).
In addition, each patient graded the hedonic (H) value of each odor presented for these same odor concentrations (from 10^−2M—an absolute odor concentration using a −100-0-+100 scale). […] Results were obtained by calculating the arithmetical sum of each correct recognition response for each odor with respect to its pleasantness, unpleasantness or neutrality. Arithmetic M±SEM were obtained for each treatment group for each odor presented.
After determination of hyposmia, patients were treated in an open label, fixed design, controlled open trial. Patients were given an oral extended release theophylline in divided daily doses taken in the middle of breakfast and lunch. All patients were initially given 200 mg of theophylline; changes in this dose were made based upon subjective responses to therapy. If at a subsequent return visit, patients reported ≥5% subjective improvement in overall smell function, they continued on this same dose of theophylline and were reevaluated after four to six months of continued treatment. Results from any subsequent return from these improved patients were not included in any subsequent data report. All subsequent comparisons between treated and untreated patients were made only between those patients continuing in the study compared to their own measurements obtained in the untreated state. If patients reported <5% subjective improvement, their theophylline dose was increased by 200 mg daily and they were scheduled for retesting at the study site after two to four months at this new dosage. For patients that reported <5% improvement, this sequence continued until patients reached 800 mg of theophylline, at which time the study was considered completed.
Patients returned for reevaluation after two to four months of treatment. Measurements of blood serum theophylline were measured by a fluorescence polarization assay (Abbott, Chicago, Ill.). At this time, subjective changes in smell function were measured independently (compared to patient's memory of previous normal smell function monitored by use of the patients' daily measurements) using the scale from −100-0-+100 previously described (vs). After independently recording their subjective responses, smell function was measured for all four odors with DT, RT, ME and H determined without recourse to prior measurements.
Since data for all measurements from each patient group (local or distant) on each dose level were combined mean and SEM for each measurement (DT, RT, ME, H) of smell function for each treatment group were calculated on this basis. Differences in measurements between before treatment and each treatment level were calculated and significance of differences estimated using Student t tests (values p<0.05 considered significant). […]

[1] = Type I hyposmia, oral 200 mg, after treatment (57 patients), mean ± SEM
[2] = Type I hyposmia, oral 400 mg, after treatment (33 patients), mean ± SEM
[3] = Type I hyposmia, oral 600 mg, after treatment (51 patients), mean ± SEM
[4] = Type I hyposmia, oral 800 mg, after treatment (12 patients), mean ± SEM
[5] = Type II hyposmia, oral 200 mg, after treatment (138 patients)
[6] = Type II hyposmia, oral 400 mg, after treatment (85 patients)
[7] = Type II hyposmia, oral 600 mg, after treatment (105 patients)

`Cn1c(=O)c2[nH]cnc2n(C)c1=O` [theophylline] was tested, and the “detection threshold (DT), pyridine” value [1] was 9.5 ± 0.2 BU, the “hedonic value (H), amyl acetate” value [1] was 4 ± 2^a % and the “hedonic value (H), nitrobenzene” value [1] was 4 ± 2^a %. The “hedonic value (H), pyridine” value [1] was −8 ± 2^a %, the “hedonic value (H), thiophene” value [1] was −3 ± 2^a % and the “magnitude estimation (ME), amyl acetate” value [1] was 6 ± 2^a %. The “magnitude estimation (ME), nitrobenzene” value [1] was 5 ± 2^a %, the “magnitude estimation (ME), pyridine” value [1] was 11 ± 2^a % and the “magnitude estimation (ME), thiophene” value [1] was 6 ± 2^a %. For the same compound, the “recognition threshold (RT), pyridine” value [1] was 11.0 ± 0.2^a BU, the “detection threshold (DT), nitrobenzene” value [2] was 9.8 ± 0.5^a BU and the “detection threshold (DT), pyridine” value [2] was 8.8 ± 0.5 BU. For the same compound, the “detection threshold (DT), thiophene” value [2] was 9.8 ± 0.5^a BU, the “hedonic value (H), amyl acetate” value [2] was 5 ± 3^a % and the “hedonic value (H), nitrobenzene” value [2] was 3 ± 3^a %. The “hedonic value (H), pyridine” value [2] was −7 ± 3^a %, the “hedonic value (H), thiophene” value [2] was −5 ± 2^a % and the “magnitude estimation (ME), amyl acetate” value [2] was 7 ± 3^a %. For the same compound, the “magnitude estimation (ME), nitrobenzene” value [2] was 8 ± 3^a %, the “magnitude estimation (ME), pyridine” value [2] was 12 ± 3^a % and the “magnitude estimation (ME), thiophene” value [2] was 7 ± 2^a %. For the same compound, the “recognition threshold (RT), pyridine” value [2] was 10.6 ± 0.4 BU, the “detection threshold (DT), nitrobenzene” value [3] was 9.9 ± 0.4^c BU and the “detection threshold (DT), pyridine” value [3] was 8.9 ± 0.3^b BU. The “detection threshold (DT), thiophene” value [3] was 9.4 ± 0.4^a BU, the “hedonic value (H), amyl acetate” value [3] was −0.4 ± 1% and the “hedonic value (H), nitrobenzene” value [3] was 2 ± 2%. The “hedonic value (H), pyridine” value [3] was −8 ± 2^a %, the “hedonic value (H), thiophene” value [3] was −3 ± 2^a % and the “magnitude estimation (ME), amyl acetate” value [3] was 5 ± 2^a %. The “magnitude estimation (ME), nitrobenzene” value [3] was 6 ± 2^a %, the “magnitude estimation (ME), pyridine” value [3] was 11 ± 3^a % and the “magnitude estimation (ME), thiophene” value [3] was 7 ± 2^a %. The “detection threshold (DT), thiophene” value [4] was 10.0 ± 0.7 BU, the “hedonic value (H), amyl acetate” value [4] was −1 ± 4% and the “hedonic value (H), nitrobenzene” value [4] was 2 ± 2^a %. For the same compound, the “hedonic value (H), pyridine” value [4] was −11 ± 5^a %, the “hedonic value (H), thiophene” value [4] was −4 ± 2^a % and the “magnitude estimation (ME), amyl acetate” value [4] was 5 ± 3^a %. The “magnitude estimation (ME), nitrobenzene” value [4] was 4 ± 3^a %, the “magnitude estimation (ME), pyridine” value [4] was 10 ± 4^a % and the “magnitude estimation (ME), thiophene” value [4] was 4 ± 2^a %. The “detection threshold (DT), amyl acetate” value [5] was 7.0 ± 0.3 BU, the “detection threshold (DT), nitrobenzene” value [5] was 6.9 ± 0.3^a BU and the “detection threshold (DT), pyridine” value [5] was 6.9 ± 0.2 BU. For the same compound, the “detection threshold (DT), thiophene” value [5] was 6.5 ± 0.3 BU, the “hedonic value (H), amyl acetate” value [5] was 3 ± 2% and the “hedonic value (H), nitrobenzene” value [5] was 7 ± 2%. The “hedonic value (H), pyridine” value [5] was −28 ± 2%, the “hedonic value (H), thiophene” value [5] was −19 ± 2% and the “magnitude estimation (ME), amyl acetate” value [5] was 19 ± 2%. The “magnitude estimation (ME), nitrobenzene” value [5] was 22 ± 2%, the “magnitude estimation (ME), pyridine” value [5] was 35 ± 2% and the “magnitude estimation (ME), thiophene” value [5] was 27 ± 2%. The “recognition threshold (RT), amyl acetate” value [5] was 9.3 ± 0.2 BU, the “recognition threshold (RT), nitrobenzene” value [5] was 8.8 ± 0.3 BU and the “recognition threshold (RT), pyridine” value [5] was 8.2 ± 0.2^a BU. The “recognition threshold (RT), thiophene” value [5] was 8.2 ± 0.3^a BU, the “detection threshold (DT), amyl acetate” value [6] was 6.1 ± 0.4^a BU and the “detection threshold (DT), nitrobenzene” value [6] was 6.3 ± 0.4^a BU. The “detection threshold (DT), pyridine” value [6] was 6.3 ± 0.3^a BU, the “detection threshold (DT), thiophene” value [6] was 5.7 ± 0.4 BU and the “hedonic value (H), amyl acetate” value [6] was 0.3 ± 2.8%. The “hedonic value (H), nitrobenzene” value [6] was 11 ± 3%, the “hedonic value (H), pyridine” value [6] was −34 ± 3% and the “hedonic value (H), thiophene” value [6] was −23 ± 3%. The “magnitude estimation (ME), amyl acetate” value [6] was 21 ± 3%, the “magnitude estimation (ME), nitrobenzene” value [6] was 27 ± 3^a % and the “magnitude estimation (ME), pyridine” value [6] was 41 ± 3^a %. The “magnitude estimation (ME), thiophene” value [6] was 31 ± 3%, the “recognition threshold (RT), amyl acetate” value [6] was 8.8 ± 0.4^a BU and the “recognition threshold (RT), nitrobenzene” value [6] was 8.2 ± 0.4^a BU. For the same compound, the “recognition threshold (RT), pyridine” value [6] was 7.7 ± 0.3^a BU, the “recognition threshold (RT), thiophene” value [6] was 7.6 ± 0.4^a BU and the “detection threshold (DT), amyl acetate” value [7] was 6.8 ± 0.3^a BU. For the same compound, the “detection threshold (DT), nitrobenzene” value [7] was 6.8 ± 0.3^a BU, the “detection threshold (DT), pyridine” value [7] was 6.7 ± 0.3^a BU and the “detection threshold (DT), thiophene” value [7] was 6.1 ± 0.3^a BU. The “hedonic value (H), amyl acetate” value [7] was 7 ± 2%, the “hedonic value (H), nitrobenzene” value [7] was 11 ± 2% and the “hedonic value (H), pyridine” value [7] was −25 ± 3%. For the same compound, the “hedonic value (H), thiophene” value [7] was −20 ± 2%, the “magnitude estimation (ME), amyl acetate” value [7] was 19 ± 2% and the “magnitude estimation (ME), nitrobenzene” value [7] was 24 ± 2%. The “magnitude estimation (ME), pyridine” value [7] was 33 ± 2%, the “magnitude estimation (ME), thiophene” value [7] was 27 ± 2% and the “recognition threshold (RT), amyl acetate” value [7] was 8.9 ± 0.3^a BU. The “recognition threshold (RT), nitrobenzene” value [7] was 8.4 ± 0.3 BU and the “recognition threshold (RT), pyridine” value [7] was 8.9 ± 0.3 BU.
